Results on four compounds are retold here after patent US20260250325A1, “Antiviral Polypeptide Membrane Fusion Inhibitor, and Preparation Method and Application Thereof” (priority 2025, published 2026).

Where a SMILES comes first, the peptide text is derived from it. The star is where a group is joined. Succinyl(4-O-cholesteryl) = CC(C)CCC[C@@H](C)[C@H]1CC[C@H]2[C@@H]3CC=C4C[C@@H](OC(=O)CCC(=O)*)CC[C@]4(C)[C@H]3CC[C@]12C

One test concerns hPIV3 C243 virus strain. In kind it is cell-based, hPIV. Particulars: LLC-MK2 cells, hPIV3 C243, plaque reduction; read-out: EC50 against hPIV3 virus. On the procedure: Rhesus monkey kidney cells (LLC-MK2) were sourced from the ATCC, with a catalog number CCL-7.1. The cells were cultured in a DMEM culture solution in which 10% fetal bovine serum, 1% non-essential amino acids, 1% sodium pyruvate, 1% L-glutamine, 100 U/ml penicillin, and 100 μg/ml streptomycin were added.
An HPIV-3 plaque experiment culture medium consisted of a DMEM culture solution added with 2% fetal bovine serum, 1% non-essential amino acids, 1% sodium pyruvate, 1% L-glutamine, 100 U/ml penicillin, and 100 μg/ml streptomycin.
The hPIV Type 3 (hPIV3 C243) was sourced from the ATCC, with a catalog number VR-93.
This study used the plaque reduction experiment to detect the in-vitro activity of the test sample against the hPIV3 C243 virus strain, and Human Anti-HPIV3 Monoclonal Antibody, clone PIA174 was an experimental system control. The test sample and a system experimental antibody were tested at 8 concentrations in duplicated wells.
The LLC-MK2 cells were digested with trypsin and then diluted to a concentration of 400,000 cells per milliliter by using a cell culture solution containing 2% serum. The diluted cells were added to a 96-well cell test board, with 100 μL per well, corresponding to 40,000 cells per well. The cells were cultured overnight in a 37° C. incubator with 5% CO2.
On the next day, the sample diluted at a fold ratio and an equal volume of virus (approximately 200 PFU per well) were well mixed and incubated at 37° C. in 5% CO2 for 1 hour. Then, the culture solution in the 96-well cell test board was discarded, the sample virus mixed solution (100 μL) was added to the 96-well cell culture plate, and incubated at 37° C. in 5% CO2 for 2 hours. After 2 h, the sample virus mixed solution was discarded, 200 μL of an experiment culture medium containing the test sample with a corresponding concentration was added, and the culture solution contained 0.8% CMC. A final concentration of DMSO in the culture solution was 0.5%. A control antibody was directly added to the experiment culture solution containing 0.8% CMC. A cell control (cells, without compound treatment or viral infection) and a viral control (cell infection virus, without compound treatment) were set. The cells were cultured for 1 day in the 37° C. incubator with 5% CO2.
The cells were fixed with 4% paraformaldehyde, and then permeabilization was performed with 0.5% Triton X-100. After the plate was washed with DPBS, a hPIV specific antibody (1:2000 dilution) was added and incubated at 37° C. for 1.5 h. Then, a secondary antibody (1:500 dilution) was added and incubated at 37° C. for 1 hour. The secondary antibody was discarded, a TrueBlue solution was added, dyeing was performed for approximately 10 minutes; and the plate was washed with running water and then air-dried, and the number of spots in each well was counted by using a microplate imaging counter.
Raw data was used for calculating the antiviral activity of the samples, and a calculation formula was shown as follows.
(§1) % inhibition rate=100−(sample value-cell control average value)/(virus control average value-cell control average value)×100
(§2) Non-linear fitting analysis was performed on the inhibition rate of the sample by using GraphPad Prism (version 10), so as to calculate an EC50 value for the sample. A fitting formula was log (inhibitor) vs. response-Variable slope (four parameters).

The test system of the next test is hMPV A2. In kind it is cell-based. As to conditions: Vero cells, plaque reduction. On the procedure:
(§3) African green monkey kidney cells (Vero) were sourced from the ATCC, with catalog number CCL-81. The cells were cultured in a DMEM culture solution in which 10% fetal bovine serum, 1% non-essential amino acids, 1% sodium pyruvate, 1% L-glutamine, 100 U/ml penicillin, and 100 μg/ml streptomycin were added.
(§4) A hMPV plaque experiment culture medium consisted of an Opti-MEM culture solution added with 1% non-essential amino acids, 100 U/mL penicillin, and 100 μg/mL streptomycin.
(§5) hMPV virus strains A2 and B1 were constructed by WuXi App Tec.
(§6) This study used a plaque reduction experiment to detect the in-vitro activity of a test sample against the hMPV virus strains A2 and B1.
(§7) The test sample and an experimental system were tested at 8 concentrations in duplicated wells. The Vero cells were digested with trypsin and then diluted to a concentration of 400,000 cells per milliliter by using a cell culture solution containing 2% serum. The diluted cells were added to a 96-well cell test board, with 100 μL per well, corresponding to 40000 cells per well. The cells were cultured overnight in a 37° C. incubator with 5% CO2.
(§8) On the second day, the test sample was diluted in an experimental culture medium at a fold ratio. The sample diluted at a fold ratio and an equal volume of virus (approximately 200 PFU per well) were well mixed and incubated at 33° C. in 5% CO2 for 1 h. Then, the culture solution in the 96-well cell test board was discarded, the sample virus mixed solution (100 μL) was added to the 96-well cell culture plate, and incubated at 37° C. in 5% CO2 for 2 hours. After 2 h, the sample virus mixed solution was discarded, 200 μL of an experiment culture medium containing the test sample with a corresponding concentration was added, and the culture solution contained 0.8% CMC and 5 μg/ml trypsin. A final concentration of DMSO in the culture solution was 0.5%. A system control antibody was directly added to the experiment culture solution containing 0.8% CMC and 5 μg/ml trypsin. A cell control (cells, without compound treatment or viral infection) and a viral control (cell infection virus, without compound treatment) were set. The cells were cultured for 1 day in the 33° C. incubator with 5% CO2.
(§9) The cells were fixed with 4% paraformaldehyde, and then permeabilization was performed with 0.5% Triton X-100. After the plate was washed with DPBS, a hMPV specific antibody (1:2000 dilution) was added and incubated at 37° C. for 1.5 h. Then, a secondary antibody (1:1000 dilution) was added and incubated at 37° C. for 1 hour. The secondary antibody was discarded, a TrueBlue solution was added, dyeing was performed for approximately 10 minutes; and the plate was washed with running water and then air-dried, and the number of spots in each well was counted by using a microplate imaging counter.
(§10) Raw data was used for analyzing the antiviral activity of the test samples. A calculation formula was shown as follows.
as §1, §2

In a further test the test system is hMPV B1. In kind it is cell-based. Particulars: Vero cells, plaque reduction. How it is done:
as §3, §4, §5, §6, §7, §8, §9, §10, §1, §2

Turning to `CC[C@H](C)[C@H](NC(=O)[C@H](CCCCN)NC(=O)[C@H](CCCCN)NC(=O)[C@H](CC(C)C)NC(=O)[C@H](CO)NC(=O)[C@H](CCC(=O)O)NC(=O)[C@H](CCC(=O)O)NC(=O)[C@@H](NC(=O)[C@H](CCCCN)NC(=O)[C@H](CCCCN)NC(=O)[C@H](CC(N)=O)NC(=O)[C@@H](NC(=O)[C@H](CCC(=O)O)NC(=O)[C@H](CCC(=O)O)NC(=O)[C@@H](NC(=O)[C@H](CCCCN)NC(=O)[C@H](CCCCN)NC(=O)[C@H](CC(=O)O)NC(=O)[C@H](Cc1ccccc1)NC(=O)[C@H](CCC(=O)O)NC(=O)[C@H](CC(=O)O)NC(=O)[C@H](Cc1c[nH]c2ccccc12)NC(C)=O)[C@@H](C)CC)C(C)C)[C@@H](C)CC)C(=O)N[C@@H](CCC(=O)O)C(=O)N[C@@H](CCC(=O)O)C(=O)N[C@@H](CO)C(=O)N[C@@H](CC(=O)O)C(=O)N[C@@H](CCCCN)C(=O)N[C@@H](CCCCN)C(=O)N[C@@H](CC(C)C)C(=O)N[C@@H](CCC(=O)O)C(=O)N[C@@H](C)C(=O)N[C@@H](C)C(=O)N[C@@H](C)C(=O)N[C@@H](CCCCN)C(=O)N[C@@H](CCCCNC(=O)CCC(=O)O[C@H]1CC[C@@]2(C)C(=CC[C@H]3[C@@H]4CC[C@H]([C@H](C)CCCC(C)C)[C@@]4(C)CC[C@@H]32)C1)C(N)=O` [Compound 13] (Ac-WDEFDKKIEEVNKKIEESLKKIEESDKKLEAAAKK(Succinyl(4-O-cholesteryl))-NH2), the values for the EC50 in the test with hPIV3 C243 virus strain, in the test on hMPV A2 and in the test with hMPV B1 were 35.6 nM, 11.7 nM and 6.18 nM, respectively.
Turning to `CC[C@H](C)[C@H](NC(=O)[C@H](CCCCN)NC(=O)[C@H](CCCCN)NC(=O)[C@H](CC(C)C)NC(=O)[C@H](CO)NC(=O)[C@H](CCC(=O)O)NC(=O)[C@H](CCC(=O)O)NC(=O)[C@@H](NC(=O)[C@H](CCCCN)NC(=O)[C@H](CCCCN)NC(=O)[C@H](CC(N)=O)NC(=O)[C@@H](NC(=O)[C@H](CCC(=O)O)NC(=O)[C@H](CCC(=O)O)NC(=O)[C@@H](NC(=O)[C@H](CCCCN)NC(=O)[C@H](CCCCN)NC(=O)[C@H](CCCCN)NC(=O)[C@H](CC(=O)O)NC(=O)[C@H](Cc1ccccc1)NC(=O)[C@H](CCC(=O)O)NC(=O)[C@H](CC(=O)O)NC(C)=O)[C@@H](C)CC)C(C)C)[C@@H](C)CC)C(=O)N[C@@H](CCC(=O)O)C(=O)N[C@@H](CCC(=O)O)C(=O)N[C@@H](CO)C(=O)N[C@@H](CC(=O)O)C(=O)N[C@@H](CCCCN)C(=O)N[C@@H](CCCCN)C(=O)N[C@@H](CC(C)C)C(=O)N[C@@H](CCC(=O)O)C(=O)N[C@@H](CCC(=O)O)C(=O)N[C@H](C(=O)NCC(=O)N[C@@H](CO)C(=O)NCC(=O)N[C@@H](CO)C(=O)NCC(=O)N[C@@H](CCCCNC(=O)CCC(=O)O[C@H]1CC[C@@]2(C)C(=CC[C@H]3[C@@H]4CC[C@H]([C@H](C)CCCC(C)C)[C@@]4(C)CC[C@@H]32)C1)C(N)=O)C(C)C` [Compound 15] (Ac-DEFDKKKIEEVNKKIEESLKKIEESDKKLEEVGSGSGK(Succinyl(4-O-cholesteryl))-NH2), the concentration for a half-maximal effect (EC50) (commonly the concentration at which the effect is half-maximal) in the test on hPIV3 C243 virus strain was 20.7 nM; in the test with hMPV A2, 17.9 nM; in the test on hMPV B1 it was 5.18 nM.
On the same counts, the results for `CC[C@H](C)[C@H](NC(=O)[C@H](CCCCN)NC(=O)[C@H](CCCCN)NC(=O)[C@H](CC(C)C)NC(=O)[C@H](CO)NC(=O)[C@H](CCC(=O)O)NC(=O)[C@H](CCC(=O)O)NC(=O)[C@@H](NC(=O)[C@H](CCCCN)NC(=O)[C@H](CCCCN)NC(=O)[C@H](CC(N)=O)NC(=O)[C@@H](NC(=O)[C@H](CCC(=O)O)NC(=O)[C@H](CCC(=O)O)NC(=O)[C@@H](NC(=O)[C@H](CCCCN)NC(=O)[C@H](CCCCN)NC(=O)[C@H](CC(=O)O)NC(=O)[C@H](Cc1ccccc1)NC(=O)[C@H](CCC(=O)O)NC(=O)[C@H](CC(=O)O)NC(=O)[C@H](CO)NC(C)=O)[C@@H](C)CC)C(C)C)[C@@H](C)CC)C(=O)N[C@@H](CCC(=O)O)C(=O)N[C@@H](CCC(=O)O)C(=O)N[C@@H](CO)C(=O)N[C@@H](CC(=O)O)C(=O)N[C@@H](CCCCN)C(=O)N[C@@H](CCCCN)C(=O)N[C@@H](CC(C)C)C(=O)N[C@@H](CCC(=O)O)C(=O)N[C@@H](C)C(=O)N[C@@H](C)C(=O)N[C@@H](C)C(=O)N[C@@H](CCCCN)C(=O)N[C@@H](CCCCNC(=O)CCC(=O)O[C@H]1CC[C@@]2(C)C(=CC[C@H]3[C@@H]4CC[C@H]([C@H](C)CCCC(C)C)[C@@]4(C)CC[C@@H]32)C1)C(N)=O` [Compound 16] (Ac-SDEFDKKIEEVNKKIEESLKKIEESDKKLEAAAKK(Succinyl(4-O-cholesteryl))-NH2) are 59 nM, 7.35 nM and 4.5 nM.
`CC[C@H](C)[C@H](NC(=O)[C@H](CCCCN)NC(=O)[C@H](CCCCN)NC(=O)[C@H](CC(C)C)NC(=O)[C@H](CO)NC(=O)[C@H](CCC(=O)O)NC(=O)[C@H](CCC(=O)O)NC(=O)[C@@H](NC(=O)[C@H](CCCCN)NC(=O)[C@H](CCCCN)NC(=O)[C@H](CC(N)=O)NC(=O)[C@@H](NC(=O)[C@H](CCC(=O)O)NC(=O)[C@H](CCC(=O)O)NC(=O)[C@@H](NC(=O)[C@H](CCCCN)NC(=O)[C@H](CCCCN)NC(=O)[C@H](CC(=O)O)NC(=O)[C@H](Cc1ccccc1)NC(=O)[C@H](CCC(=O)O)NC(=O)[C@H](CC(=O)O)NC(=O)[C@H](CO)NC(C)=O)[C@@H](C)CC)C(C)C)[C@@H](C)CC)C(=O)N[C@@H](CCC(=O)O)C(=O)N[C@@H](CCC(=O)O)C(=O)N[C@@H](CO)C(=O)N[C@@H](CC(=O)O)C(=O)N[C@@H](CCCCN)C(=O)N[C@@H](CCCCN)C(=O)N[C@@H](CC(C)C)C(=O)NCC(=O)N[C@@H](CO)C(=O)NCC(=O)N[C@@H](CO)C(=O)NCC(=O)N[C@@H](CCCCNC(=O)CCC(=O)O[C@H]1CC[C@@]2(C)C(=CC[C@H]3[C@@H]4CC[C@H]([C@H](C)CCCC(C)C)[C@@]4(C)CC[C@@H]32)C1)C(N)=O` [Compound 20] (Ac-SDEFDKKIEEVNKKIEESLKKIEESDKKLGSGSGK(Succinyl(4-O-cholesteryl))-NH2): the concentration for a half-maximal effect (EC50) in the test on hPIV3 C243 virus strain was determined as 59.5 nM; in the test on hMPV A2 it was 7.47 nM; in the test on hMPV B1, 4.27 nM.
